For test [1], the species on record is Homo sapiens. Nature of the test: Covalent binding affinity to Spl2/Rab27A C188 mutant fusion protein (unknown origin) assessed as half-life of adduct formation by measuring protein mass shift after 24 hrs by intact-protein mass spectrometry.
For test [2], the species on record is Homo sapiens. Nature of the test: Covalent binding affinity to Spl2/Rab27A C123 mutant fusion protein (unknown origin) assessed as half-life of adduct formation by measuring protein mass shift after 8 hrs by intact-protein mass spectrometry.

Each structure is given as a SMILES string. Activity calls are given as the source filed them. The rule behind the calls is not given here.

With `C=CC(=O)Nc1nc2ccccc2n1CCc1ccccn1`, the outcome in the test filed under Homo sapiens [1] and in the test listed under Homo sapiens [2] was Active.

Regarding `C=CC(=O)N1CCC[C@H]1c1ccc(OC)cc1`, in the test listed under Homo sapiens [1], the outcome was Active.

(Values after ChEMBL document CHEMBL5104105, “Identification of the first structurally validated covalent ligands of the small GTPase RAB27A” (RSC Med Chem, 2022).)
